The nature of data set [1]: in vitro. Conditions: human.
Another data set deals with SFV. As to the kind of experiment: microbe, parasite or virus in culture. The data set is classed as cell-based, Semliki Forest virus. Conditions: for inhibition at 10 µM / IC50: Semliki Forest virus; for inhibition at 10 µM: M-HeLa, read-out: % inhibition (SFV screen); for IC50: HeLa Kyoto.
Data set [2] can be described thus: in vitro. Conditions: human. The source holds these as a separate data set.
Another data set has as its system DENV-2. The experiment in a line: DENV-2 infection assay / secondary screen (E protein staining). The data set is classed as cell-based, dengue virus serotype 2. Conditions: Dengue virus, DENV2, Huh-7, 24 h, read-out: % inhibition (DENV-2 screen).
The subject of data set [3] is HeLa Kyoto cells. Particulars: human, 10 µM.
Data set [4] deals with HeLa Kyoto cells. Particulars: human.

The structures appear in SMILES notation. Structures can show the parent of a compound that is named as a salt. Where two headings read alike, the source gives them in different places. Where only a bound is given, the exact number is not on record here.

Turning to `CSc1ccc2c(c1)C(N1CCN(C)CC1)Cc1ccccc1S2` (stereo not drawn) [Methiothepin mesylate], the viability at 10 µM in “in vitro [1]” (% viability (SFV screen)) turned out to be 66.6%; in the data set “in vitro [2]”, 0.1%. The inhibition at 10 µM with SFV (7 h) is 84%.
As for `CSc1ccc2c(c1)N(CCC1CCCCN1C)c1ccccc1S2` (stereo not drawn) [Thioridazine hydrochloride], the viability at 10 µM in the data set “in vitro [1]” (% viability (SFV screen)) was 71.3%; in “in vitro [2]” it was 5.89%. Further, the inhibition at 10 µM in the data set with SFV (7 h) stood at 89.1%.
For `O=C1NCCN1CCN1CCC(c2cn(-c3ccc(F)cc3)c3ccc(Cl)cc23)CC1` [Sertindole], the values for the viability at 10 µM in the data set “in vitro [1]” (% viability (SFV screen)) and in the data set “in vitro [2]” were 105% and 26.6%, respectively. For the same compound, the inhibition at 10 µM in the data set with SFV (7 h) stood at 67.2%.
As to `Nc1ccn([C@@H]2O[C@H](CO)[C@@H](O)C2(F)F)c(=O)n1` [Gemcitabine], the viability at 10 µM in “in vitro [1]” (% viability (SFV screen)) worked out at 102%; in “in vitro [2]”, 61.8%. Besides, the inhibition at 10 µM in the data set with DENV-2 is -137%; in the data set on SFV (7 h) it was 67%.
As for `Nc1c2ccccc2nc2ccccc12` [Aminacrine], the viability at 10 µM in the data set “in vitro [1]” (% viability (SFV screen)) was 87.4%; in “in vitro [2]”, 23.3%. The inhibition at 10 µM in the data set with SFV (7 h) was 89.2%.
For the compound `c1ccc2c(c1)OCC(C1=NCCN1)O2` (stereo not drawn) [Idazoxan hydrochloride], the viability at 10 µM in the data set “in vitro [1]” (% viability (SFV screen)) amounted to 67.6%; in “in vitro [2]”, 71.2%. Also, the inhibition at 10 µM was found to be 48.8% with DENV-2 and 94.5% in the data set on SFV (7 h).
In the case of `[H]/N=C(\N/C(=N/[H])NCCCCCCNC(=N)NC(=N)Nc1ccc(Cl)cc1)Nc1ccc(Cl)cc1` [Chlorhexidine], the viability at 10 µM in the data set “in vitro [1]” (% viability (SFV screen)) was 96.2%; in the data set “in vitro [2]”, 16.6%. Besides, the inhibition at 10 µM with SFV (7 h) was found to be 96.6%.
As to `Cc1ccc(S(=O)(=O)NC(=O)NN2CCCCCC2)cc1` [Tolazamide], the viability at 10 µM is 113% in “in vitro [1]” (% viability (SFV screen)) and 116% in the data set “in vitro [2]”. The inhibition at 10 µM in the data set with DENV-2 amounted to 36.5%; with SFV (7 h), 101%.
Regarding `CC/C(=C(\c1ccccc1)c1ccc(OCCN(C)C)cc1)c1ccccc1` [Tamoxifen citrate], the viability at 10 µM in the data set “in vitro [1]” (% viability (SFV screen)) worked out at 61.7%. In addition, the inhibition at 10 µM in the data set with SFV (7 h) came to 98.3%.
For the compound `Nc1ncn([C@@H]2O[C@H](CO)[C@@H](O)[C@H]2O)c(=O)n1` [5-azacytidine], the viability at 10 µM in the data set “in vitro [1]” (% viability (SFV screen)) worked out at 75.5%; in “in vitro [2]”, 106%. The “% viability (SFV screen)” value in the data set on HeLa Kyoto cells [3] is recorded as 75.30%. The inhibition at 10 µM is 9.67% in the data set with DENV-2 and 99.8% in the data set with SFV (7 h). Moreover, in the data set on SFV (10 µM), the “% inhibition (SFV screen)” value was determined as 101.05%.
As to `CCOC(=O)C1=C(C)NC(C)=C(C(=O)OCC)C1c1ccccc1/C=C/C(=O)OC(C)(C)C` [Lacidipine], the viability at 10 µM is 80.6% in “in vitro [1]” (% viability (SFV screen)) and 75.7% in the data set “in vitro [2]”. Moreover, in the data set with HeLa Kyoto cells [4] (7 h), the “TC50 SFV (7h)” value turned out to be 27700 µM. Moreover, the inhibition at 10 µM was 98% in the data set with DENV-2 and 79.8% with SFV (7 h). Also, the 50% inhibitory concentration (IC50) in the data set with SFV (7 h, read-out: IC50 SFV) was 23.7 µM.
With `C1CCC(C(CC2CCCCN2)C2CCCCC2)CC1` (stereo not drawn) [Perhexiline maleate], the results for the viability at 10 µM in “in vitro [1]” (% viability (SFV screen)) and in the data set “in vitro [2]” were 62.9% and 1.42%, respectively. Moreover, the inhibition at 10 µM in the data set with SFV (7 h) was 101%.
For `Nc1ncnc2c1ncn2[C@@H]1O[C@H](COP(=O)(O)O)[C@@H](O)[C@H]1O` [Adenosine 5'-monophosphate monohydrate], the viability at 10 µM is 86.8% in the data set “in vitro [1]” (% viability (SFV screen)) and 105% in “in vitro [2]”. The inhibition at 10 µM is -177% in the data set on DENV-2 and 73.4% with SFV (7 h).
As to `CN[C@@H]1C[C@@H](c2ccc(Cl)c(Cl)c2)c2ccccc21` [Indatraline hydrochloride], the viability at 10 µM in “in vitro [1]” (% viability (SFV screen)) was 76.4%; in “in vitro [2]”, 1.66%. Moreover, the inhibition at 10 µM in the data set with SFV (7 h) is 72.2%.
For `C=C(NC(=O)C(=C)NC(=O)c1csc(C2=N[C@@H]3c4csc(n4)[C@H]4NC(=O)c5csc(n5)[C@H]([C@](C)(O)[C@@H](C)O)NC(=O)[C@H]5CSC(=N5)/C(=C/C)NC(=O)[C@H]([C@@H](C)O)NC(=O)c5csc(n5)[C@]3(CC2)NC(=O)[C@H](C)NC(=O)C(=C)NC(=O)[C@H](C)NC(=O)[C@H]([C@@H](C)CC)N[C@@H]2C=Cc3c([C@H](C)O)cc(nc3[C@H]2O)C(=O)O[C@@H]4C)n1)C(N)=O` [Thiostrepton], in that order: 88.5%, 18.7% and 65.9%.
As to `CCN(CC)CCOc1ccc(C(=C(Cl)c2ccccc2)c2ccccc2)cc1` [Clomiphene, Clomiphene citrate (Z,E)], the figures for the viability at 10 µM in “in vitro [1]” (% viability (SFV screen)) and in the data set “in vitro [2]” were 97.1% and 41.8%, respectively. In addition, the “TC50 SFV (7h)” value in the data set with HeLa Kyoto cells [4] stood at 27400 µM. For the same compound, the inhibition at 10 µM stood at 99.3% in the data set with DENV-2 and 77.8% with SFV (7 h).
On to `CCCCN(CCCC)CCC(O)c1cc2c(Cl)cc(Cl)cc2c2cc(C(F)(F)F)ccc12` (stereo not drawn) [Halofantrine, Halofantrine hydrochloride], for which the viability at 10 µM in “in vitro [1]” (% viability (SFV screen)) was determined as 96.9%; in the data set “in vitro [2]”, 89.4%. The “TC50 SFV (7h)” value with HeLa Kyoto cells [4] was 290400 µM. Further, the inhibition at 10 µM in the data set on DENV-2 stood at 83.6%; with SFV (7 h), 102%. For the same compound, the concentration for half-maximal inhibition (IC50) in the data set with SFV (7 h, read-out: IC50 SFV) was 116 µM; in the data set with SFV (read-out: IC50 SFV (7 h)), greater than 100 µM.
For `C[C@@H]1C[C@@H]([C@H](O)CC2CC(=O)NC(=O)C2)C(=O)[C@@H](C)C1` [Cycloheximide], in “in vitro [1]”, the viability at 10 µM came to 94%. Moreover, the inhibition at 10 µM in the data set with DENV-2 turned out to be 64.5%; in the data set with SFV (7 h) it was 99.9%. Also, the viability at 24 h, 10 µM in “in vitro [2]” is 60.1%.
Turning to `CN1CCN(CCCN2c3ccccc3Sc3ccc(C(F)(F)F)cc32)CC1` [Trifluoperazine dihydrochloride], the viability at 10 µM in “in vitro [1]” (% viability (SFV screen)) worked out at 93.9%; in the data set “in vitro [2]”, 0.13%. Further, in the data set with SFV (7 h), the inhibition at 10 µM turned out to be 96.5%.
`OC(c1cc(C(F)(F)F)nc2c(C(F)(F)F)cccc12)C1CCCCN1` (stereo not drawn) [Mefloquine hydrochloride]: the viability at 10 µM in the data set “in vitro [1]” (% viability (SFV screen)) turned out to be 72.7%; in the data set “in vitro [2]”, 7.25%. In addition, the inhibition at 10 µM with DENV-2 was -22.1%; in the data set with SFV (7 h) it was 94.3%.
For `Clc1cc(Cl)c(OCC#CI)cc1Cl` [Haloprogin], in that order: 75.4%, 104%, 1.64% and 99.8%.
On to `C/C=C(/C)C(=O)O[C@H]1C(C)=C2[C@H]([C@@H]1OC(=O)CCCCCCC)[C@@](C)(OC(C)=O)C[C@H](OC(=O)CCC)[C@@]1(O)[C@H]2OC(=O)[C@@]1(C)O` [Thapsigargin], for which the viability at 10 µM came out at 103% in the data set “in vitro [1]” (% viability (SFV screen)) and 53.3% in “in vitro [2]”. For the same compound, the inhibition at 10 µM in the data set with DENV-2 is 98%; in the data set with SFV (7 h), 83.4%.
Consider `CN1CCN(CCCN2c3ccccc3Sc3ccc(Cl)cc32)CC1` [Prochloperazine, Prochlorperazine dimaleate], for which the viability at 10 µM in the data set “in vitro [1]” (% viability (SFV screen)) came out at 84%; in “in vitro [2]”, 46.7%. Also, the “TC50 SFV (7h)” value in the data set on HeLa Kyoto cells [4] was determined as 22700 µM. Besides, the inhibition at 10 µM with DENV-2 was 98.9%; with SFV (7 h) it was 73.3%.

These data come from publication PMC6410080 (Viruses, 2019).
